# Legend:
# E. coli (2) = test: Susceptibility testing (MIC, CLSI microdilution); type: cell-based, Escherichia coli; settings: 20 h at 35° C., in µg/mL (unit assumed)
# Description: (§1) Compounds were tested following the microdilution method of CLSI (Clinical and Laboratory Standards Institute. Methods for dilution antimicrobial susceptibility tests for bacteria that grow aerobically; Approved standard—sixth edition. CLSI document M7-A5, CLSI, Wayne, Pa. 2003). Assays were performed in sterile plastic 96-well microtiter trays with round bottom wells (Greiner).
# (§2) Stock solutions of test compounds and control antibiotics were prepared at 10 mg/ml in DMSO. Serial 2-fold dilutions of each drug were performed in a microtiter plate across each row using DMSO as solvent at 100-fold the desired final concentration. Wells in columns #1-11 contain drug and column #12 was kept as a growth control for the organism with no drug. Each well in the mother plate was diluted with sterile deionized water and DMSO, mixed, and volumes of 10 μl distributed to each well in the resulting assay plates.
# (§3) Stock cultures were prepared using the Microbank™ method (Pro-Lab Diagnostics) and stored at −80° C. To propagate each strain, one bead was removed from the frozen vial and aseptically streaked onto Trypticase Soy Agar (Difco) which were incubated at 35° C. Standardized inocula were prepared using the direct colony suspension method according to CLSI guidelines (Clinical and Laboratory Standards Institute. Methods for dilution antimicrobial susceptibility tests for bacteria that grow aerobically; Approved standard—sixth edition. CLSI document M7-A5, CLSI, Wayne, Pa., 2003). Isolated colonies were selected from an 18-24 hr agar plate and resuspended in 0.9% sterile saline to match a 0.5 McFarland turbidity standard using a calorimeter (Vitek) at 80% of transmitance. The suspension was used within 15 minutes of preparation.
# (§4) Mueller-Hinton Broth (MHB) (Difco) was prepared at a 1.1× concentration and supplemented with Ca++ and Mg++ as recommended by CLSI. For each organism, the standardized suspension was diluted 1:180 into appropriate growth medium in a sterile reservoir. After mixing, wells in the drug-containing assay plates were inoculated with a volume of 90 μl. Thus, for each minimum inhibitory concentration (MIC) determination, each well contains a final volume of 100 μl with an inoculum size of approximately 5×10^5 colony forming units (cfu)/ml and no more than 1% DMSO.
# (§5) The completed microtiter plates were incubated 20 h at 35° C. in ambient air. Optical density of each well was determined at 600 nm using a VersaMax Microplate reader (Molecular Devices, Sunnyvale, Calif.). The MIC was defined as the lowest drug concentration causing complete suppression of visible bacterial growth.
# E. coli tolC = test: Susceptibility testing (MIC, CLSI microdilution); type: cell-based, Escherichia coli; settings: 20 h at 35° C., unit assumed
# Description: as §1, §2, §3, §4, §5
# P. aerug. (2) = test: Susceptibility testing (MIC, CLSI microdilution); type: cell-based, Pseudomonas aeruginosa; settings: 20 h at 35° C., in µg/mL (unit assumed)
# Description: as §1, §2, §3, §4, §5
# P. aerug. Hypersuc = test: Susceptibility testing (MIC, CLSI microdilution); type: cell-based, Pseudomonas aeruginosa; settings: 20 h at 35° C., Δ efflux, hypersusceptible strain, unit assumed
# Description: as §1, §2, §3, §4, §5
# K. pneu. = test: Susceptibility testing (MIC, CLSI microdilution); type: cell-based, Klebsiella pneumoniae; settings: 20 h at 35° C., unit assumed
# Description: as §1, §2, §3, §4, §5
# H. influen. = test: Susceptibility testing (MIC, CLSI microdilution); type: cell-based, Haemophilus influenzae; settings: 20 h at 35° C., unit assumed
# Description: as §1, §2, §3, §4, §5
# P. ae LpxC enzyme = P. ae LpxC enzyme (Pseudomonas aeruginosa, UniProt P47205); test: Enzyme inhibition testing (fluorescamine assay); type: biochemical; settings: read-out: ENZYME (percent inhibition); for inhibition at 0.1 µg/mL: @0.1 μg/ml; for inhibition at 0.5 µg/mL: @0.5 μg/ml
# Sequence of P. ae LpxC enzyme (P47205 whole entry): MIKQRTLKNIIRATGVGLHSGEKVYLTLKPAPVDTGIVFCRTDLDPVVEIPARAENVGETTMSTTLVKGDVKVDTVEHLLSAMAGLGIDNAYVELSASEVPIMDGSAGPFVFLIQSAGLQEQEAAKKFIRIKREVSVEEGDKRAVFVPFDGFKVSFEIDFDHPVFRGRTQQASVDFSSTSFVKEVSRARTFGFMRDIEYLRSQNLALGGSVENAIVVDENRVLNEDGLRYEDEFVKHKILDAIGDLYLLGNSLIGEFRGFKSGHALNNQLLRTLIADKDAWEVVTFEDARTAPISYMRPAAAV
# Description: Compounds were tested based on a published method (Wang W., 2001, Anal Biochem, 290, 338-46) with modifications. Enzyme assays were performed in the assay buffer (50 mM HEPES, pH8, 0.005% Brij, 50 μM ZnSO4, 1 mg/ml BSA) in 96-well V-bottom microtiter plates.
# Stock solutions of test compounds and control antibiotics are prepared at 10 mg/ml in DMSO and are diluted in the assay buffer to 6-fold the final testing concentration. 5 μl compound dilution is distributed to the well of the assay plate. EDTA is used as positive control and the final concentration in assay is 12.5 mM.
# P. ae LpxC enzyme dilution in the assay buffer is added to the compound in plate and pre-incubated with the compound at room temperature for 10 min. LpxC substrate is added to initiate the enzyme reaction and the final enzyme and substrate concentrations are 1.2 μM and 0.4 mM, respectively. The reaction continues at RT for 4 hrs before diluted with 45 μl of Borate buffer (0.4 M, pH9), followed by addition of 40 μl derivatization reagent (fluorescamine 2 mg/ml DMF). This mixture is incubated at RT for 10 min followed by addition of 150 μl DMF/H2O (1:1). The resulting solution is loaded onto Millipore filter unit (Microcon 10 k MWCO) and spun at 13 k rpm on bench top centrifuge for 15 min. 100 μl of this filtrate is transferred to a low fluorescence clear-bottom 96-well plate (Corning) and the fluorescence is detected at ex360 nm and em465 nm on a Tecan fluorescence plate reader. The percent inhibition is calculated based on EDTA produces 100% inhibition and negative control produces 100% activity.
SMILES,MIC E. coli (2) (E. coli (2)),MIC E. coli tolC (E. coli tolC) [µg/mL],MIC P. aerug. (2) (P. aerug. (2)),MIC P. aerug. Hypersuc (P. aerug. Hypersuc) [µg/mL],MIC K. pneu. (K. pneu.) [µg/mL],MIC H. influen. (H. influen.) [µg/mL],inhibition at 0.1 µg/mL (P. ae LpxC enzyme) [%],inhibition at 0.5 µg/mL (P. ae LpxC enzyme) [%]
"O=C(NC(C(=O)NO)C(F)(F)F)c1ccc(-c2cc(F)cc(F)c2)cc1 (racemic) [Compound 23, DL-3′,5′-Difluoro-biphenyl-4-carboxylic acid (2,2,2-trifluoro-1-hydroxycarbamoyl-ethyl)-amide]",16,8,8,2,16,16,24,
"CCCc1ccc(-c2ccc(C(=O)N[C@@H](CCS(C)(=O)=O)C(=O)NO)cc2)cc1 [Compound 27, (S)-N-(1-(Hydroxyamino)-4-(methylsulfone)-1-oxobutan-2-yl)-4′-propylbiphenyl-4-carboxamide]",>64,> 64,>64,> 64,> 64,> 64,38,
"CCCc1ccc(-c2ccc(C(=O)N3CCS[C@@H]3C(=O)NO)cc2)cc1 [Compound 18, (R)-N-Hydroxy-3-(4′-propylbiphenylcarbonyl)thiazolidine-2-carboxamide]",>64,16,>64,32,32,64,,50
"CCCc1ccc(-c2ccc(C(=O)N3CC[C@H](N=[N+]=[N-])[C@H]3C(=O)NO)cc2)cc1 [Compound 1, (2S,3S)-3-Azido-N-hydroxy-1-(4′-propylbiphenylcarbonyl)pyrrolidine-2-carboxamide]",>64,32,>64,> 64,> 64,> 64,,35
CCCc1ccc(-c2ccc(C(=O)N3CC[C@H](F)[C@H]3C(=O)NO)cc2)cc1 [Compound 6],>64,16,>64,32,32,> 64,,87
"CCCc1ccc(-c2ccc(C(=O)N3CC[C@H](NC=O)[C@H]3C(=O)NO)cc2)cc1 [Compound 4, (2S,3S)-3-Formamido-N-hydroxy-1-(4′-propylbiphenylcarbonyl)pyrrolidine-2-carboxamide]",>64,32,>64,64,> 64,> 64,,69
"CCCc1ccc(-c2ccc(C(=O)NC(CS(C)(=O)=O)C(=O)NO)cc2)cc1 (stereo in doubt) [Compound 29, (S)-N-(1-(Hydroxyamino)-3-(methylsulfone)-1-oxopropan-2-yl)-4′-propylbiphenyl-4-carboxamide]",>64,≤ 0.06,>64,32,4,> 64,59,
"CCOc1ccc(-c2ccc(C(=O)N3CCS(=O)(=O)[C@H]3C(=O)NO)cc2)cc1 [Compound 33, (S)-3-(4′-Ethoxybiphenylcarbonyl)-N-hydroxythiazolidinesulfone-2-carboxamide]",>64,≤ 0.06,4-16,2,32,16,12,
"CCc1ccc(-c2ccc(C(=O)N3CC[C@@H](N)[C@H]3C(=O)NO)cc2)cc1 [Compound 34, (2S,3R)-3-Amino-N-hydroxy-1-(4′-ethylbiphenylcarbonyl)pyrrolidine-2-carboxamide]",>64,> 64,16-32,64,> 64,> 64,,93

# From US8088804B2, “N-hydroxyamide derivatives possessing antibacterial activity” (Pfizer Inc., priority 2005, dated 2012)
